From ChEMBL document CHEMBL4041518, “Novel tacrine-1,2,3-triazole hybrids: In vitro, in vivo biological evaluation and docking study of cholinesterase inhibitors” (Eur J Med Chem, 2017)
Active and inactive are the calls of the source. The rule behind the calls is not given here.

How the values were obtained:
[1] = target: Acetylcholinesterase (Electrophorus electricus) (UniProt O42275); test: Potency index, ratio of rivastigmine IC50 to compound IC50 for electric eel AChE
[2] = target: Cholinesterase (Equus caballus) (UniProt P81908); test: Potency index, ratio of rivastigmine IC50 to compound IC50 for equine serum BuChE
Sequence of Cholinesterase (Equus caballus) (P81908 whole entry): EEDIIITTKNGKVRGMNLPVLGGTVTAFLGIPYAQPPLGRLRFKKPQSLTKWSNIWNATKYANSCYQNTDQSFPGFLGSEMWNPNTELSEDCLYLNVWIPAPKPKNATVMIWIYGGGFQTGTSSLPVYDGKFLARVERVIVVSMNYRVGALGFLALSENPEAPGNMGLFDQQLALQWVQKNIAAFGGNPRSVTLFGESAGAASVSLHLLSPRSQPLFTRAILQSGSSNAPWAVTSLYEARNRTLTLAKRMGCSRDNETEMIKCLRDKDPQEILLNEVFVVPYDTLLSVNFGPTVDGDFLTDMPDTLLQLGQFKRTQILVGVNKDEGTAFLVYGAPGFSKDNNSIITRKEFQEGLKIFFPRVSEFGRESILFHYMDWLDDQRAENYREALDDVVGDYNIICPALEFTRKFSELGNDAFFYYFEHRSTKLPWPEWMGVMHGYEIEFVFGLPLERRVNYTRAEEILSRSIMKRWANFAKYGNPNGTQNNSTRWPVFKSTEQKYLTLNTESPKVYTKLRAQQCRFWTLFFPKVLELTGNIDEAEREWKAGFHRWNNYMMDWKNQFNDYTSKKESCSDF

Acetylcholinesterase [3] = target: T1, Acetylcholinesterase (Electrophorus electricus, UniProt O42275)
T1 sequence (O42275 whole entry): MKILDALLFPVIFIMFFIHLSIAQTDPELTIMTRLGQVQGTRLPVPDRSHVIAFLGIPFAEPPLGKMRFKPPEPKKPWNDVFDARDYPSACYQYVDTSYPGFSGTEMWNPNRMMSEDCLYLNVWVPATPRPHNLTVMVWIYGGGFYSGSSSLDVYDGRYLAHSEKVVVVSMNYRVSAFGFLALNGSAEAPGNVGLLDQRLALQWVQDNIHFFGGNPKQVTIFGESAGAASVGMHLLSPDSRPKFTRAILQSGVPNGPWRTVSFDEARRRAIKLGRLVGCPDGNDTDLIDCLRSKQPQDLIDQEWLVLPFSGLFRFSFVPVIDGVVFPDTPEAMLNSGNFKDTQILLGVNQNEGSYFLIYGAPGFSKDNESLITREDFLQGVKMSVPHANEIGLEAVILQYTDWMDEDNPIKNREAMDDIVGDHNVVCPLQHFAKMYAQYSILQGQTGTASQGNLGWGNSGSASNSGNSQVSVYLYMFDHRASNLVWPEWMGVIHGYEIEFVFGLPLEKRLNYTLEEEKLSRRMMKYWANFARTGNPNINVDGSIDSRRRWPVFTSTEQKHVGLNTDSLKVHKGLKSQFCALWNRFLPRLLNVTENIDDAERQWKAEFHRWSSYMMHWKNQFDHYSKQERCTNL
Description: Inhibition of electric eel AChE using acetylthiocholine iodide as substrate preincubated for 15 mins followed by substrate addition measured after 20 mins by Ellman's method

Cholinesterase [4] = target: T2, Cholinesterase (Equus caballus, UniProt P81908)
T2 sequence (P81908 whole entry): as the sequence (P81908 whole entry) above
Description: Inhibition of equine serum BuChE using butyrylthiocholine iodide as substrate preincubated for 15 mins followed by substrate addition measured after 20 mins by Ellman's method

Acetylcholinesterase [5] = target: T1, Acetylcholinesterase; test: Mixed-type inhibition of electric eel AChE using acetylthiocholine iodide as substrate preincubated for 15 mins followed by substrate addition measured after 20 mins by Lineweaver-Burk plot analysis
[6] = Antioxidant activity assessed as DPPH radical scavenging activity incubated under dark condition for 30 mins by UV-Visible spectrophotometric method; format: functional
PC-12 [7] = test: Neuroprotective activity against H2O2-induced cell death in rat PC12 cells assessed as cell viability at 50 uM preincubated for 3 hrs followed by H2O2 addition measured after 24 hrs by MTT assay relative to control; format: functional; details: read-out: Activity
PC-12 [8] = test: Neuroprotective activity against H2O2-induced cell death in rat PC12 cells assessed as cell viability at 100 uM preincubated for 3 hrs followed by H2O2 addition measured after 24 hrs by MTT assay relative to control; format: functional; details: read-out: Activity
PC-12 [9] = test: Neuroprotective activity against H2O2-induced cell death in rat PC12 cells assessed as cell viability at 10 uM preincubated for 3 hrs followed by H2O2 addition measured after 24 hrs by MTT assay relative to control; format: functional; details: read-out: Activity
Rattus norvegicus [10] = test: (§1) Reversal of scopolamine-induced memory impairment in Wistar albino rat assessed as decrease in escape latency time during 4 days training period at 5 to 20 mg/kg, ip administered 60 mins prior to test for 4 consecutive days followed by scopolamine challenge 30 mins prior to test by Morris water maze test; format: functional, organism-based
Rattus norvegicus [11] = test: as §1, with “traveled distance” for “escape latency time”; format: functional, organism-based
Rattus norvegicus [12] = test: Reversal of scopolamine-induced memory impairment in Wistar albino rat assessed as change in swimming speed during 4 days training period at 5 to 20 mg/kg, ip administered 60 mins prior to test for 4 consecutive days followed by scopolamine challenge 30 mins prior to test by Morris water maze test; format: functional, organism-based
Rattus norvegicus [13] = test: Reversal of scopolamine-induced memory impairment in Wistar albino rat assessed as increase in time spent in target quadrant at 5 to 20 mg/kg, ip administered for 4 consecutive days 60 mins prior to test followed by scopolamine challenge 30 mins prior to test measured on day 5 by Morris water maze test; format: functional, organism-based
MCF7 = test: cells; details: Homo sapiens, MCF7, 72 h
Description: Cytotoxicity against human MCF7 cells assessed as reduction in cell viability after 72 hrs by MTT assay

T47D = test: cells; details: Homo sapiens, 72 h
Description: Cytotoxicity against human T47D cells assessed as reduction in cell viability after 72 hrs by MTT assay

MDA-MB-231 = test: cells; details: Homo sapiens, MDA-MB-231, 72 h
Description: Cytotoxicity against human MDA-MB-231 cells assessed as reduction in cell viability after 72 hrs by MTT assay

Cholinesterase [14] = target: T2, Cholinesterase; test: Mixed-type inhibition of equine serum BuChE using butyrylthiocholine iodide as substrate preincubated for 15 mins followed by substrate addition measured after 20 mins by Lineweaver-Burk plot analysis

Sequence of Acetylcholinesterase (Electrophorus electricus) (O42275 24-633 limits assumed): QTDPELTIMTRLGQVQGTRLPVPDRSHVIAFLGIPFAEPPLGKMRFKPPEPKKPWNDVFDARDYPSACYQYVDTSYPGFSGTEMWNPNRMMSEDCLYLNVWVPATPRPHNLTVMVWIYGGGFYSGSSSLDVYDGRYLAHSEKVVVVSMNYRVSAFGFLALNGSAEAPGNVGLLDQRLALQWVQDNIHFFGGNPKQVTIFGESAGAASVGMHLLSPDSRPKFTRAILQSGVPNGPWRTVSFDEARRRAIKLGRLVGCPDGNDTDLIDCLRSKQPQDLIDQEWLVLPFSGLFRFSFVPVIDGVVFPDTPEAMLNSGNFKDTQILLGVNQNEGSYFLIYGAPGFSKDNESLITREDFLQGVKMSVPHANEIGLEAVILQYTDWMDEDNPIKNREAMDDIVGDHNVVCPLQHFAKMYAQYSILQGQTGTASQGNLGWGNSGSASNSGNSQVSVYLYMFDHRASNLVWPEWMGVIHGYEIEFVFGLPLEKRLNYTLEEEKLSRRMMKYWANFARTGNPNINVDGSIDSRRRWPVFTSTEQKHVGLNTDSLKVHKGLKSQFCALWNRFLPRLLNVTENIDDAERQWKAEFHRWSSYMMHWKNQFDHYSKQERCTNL

| SMILES | Ratio IC50 [1] | Ratio IC50 [2] | IC50 (Acetylcholinesterase [3]) [µM] | IC50 (Cholinesterase [4]) [µM] | Ki (Acetylcholinesterase [5]) [µM] | Activity [6] | viability at 50 µM (PC-12 [7]) [%] | viability at 100 µM (PC-12 [8]) [%] | viability at 10 µM (PC-12 [9]) [%] | Activity (Rattus norvegicus [10]) | Activity (Rattus norvegicus [11]) | Activity (Rattus norvegicus [12]) | Activity (Rattus norvegicus [13]) | IC50 (MCF7) [µM] | IC50 (T47D) [µM] | IC50 (MDA-MB-231) [µM] | Ki (Cholinesterase [14]) [µM] |
| --- | --- | --- | --- | --- | --- | --- | --- | --- | --- | --- | --- | --- | --- | --- | --- | --- | --- |
| Fc1ccc(Cn2cc(CNc3c4c(nc5ccc(Cl)cc35)CCCC4)nn2)cc1 | 3 to 21 | 2 to 140 | 1.44 | 0.721 | – | – | – | – | – | – | – | – | – | – | – | – | – |
| COc1ccc(Cn2cc(CNc3c4c(nc5ccc(Cl)cc35)CCCC4)nn2)cc1 | 3 to 21 | 2 to 140 | 0.521 | 1.85 | 0.94 | inactive | 73.5 | 74.8 | 65.4 | Active | Active | inactive | Active | > 100 | > 100 | > 100 | – |
| Fc1ccc(Cn2cc(CNc3c4c(nc5cc(Cl)ccc35)CCCC4)nn2)cc1 | 3 to 21 | 2 to 140 | 2.28 | 0.216 | – | – | – | – | – | – | – | – | – | 87.5 | 80 | 83.4 | – |
| COc1ccc(Cn2cc(CNc3c4c(nc5ccccc35)CCCC4)nn2)cc1 | 3 to 21 | 2 to 140 | 2 | 0.055 | – | – | – | – | – | – | – | – | – | > 100 | 94.1 | > 100 | 0.121 |
| Cc1ccc(Cn2cc(CNc3c4c(nc5cc(Cl)ccc35)CCCC4)nn2)cc1 | 3 to 21 | 2 to 140 | 1.11 | 0.065 | – | – | – | – | – | – | – | – | – | – | – | – | – |
| Clc1ccc2c(NCc3cn(Cc4ccccc4)nn3)c3c(nc2c1)CCCC3 | 3 to 21 | 2 to 140 | 2.32 | 0.197 | – | – | – | – | – | – | – | – | – | > 100 | 97.3 | > 100 | – |
| Clc1ccc(Cn2cc(CNc3c4c(nc5cc(Cl)ccc35)CCCC4)nn2)cc1 | 3 to 21 | 2 to 140 | 0.983 | > 5 | – | – | – | – | – | – | – | – | – | – | – | – | – |
| Clc1ccc(Cn2cc(CNc3c4c(nc5ccc(Cl)cc35)CCCC4)nn2)cc1 | 3 to 21 | 2 to 140 | 1.96 | 3.94 | – | – | – | – | – | – | – | – | – | – | – | – | – |
| Cc1ccc(Cn2cc(CNc3c4c(nc5ccc(Cl)cc35)CCCC4)nn2)cc1 | 3 to 21 | 2 to 140 | 0.768 | 0.747 | – | inactive | – | – | – | – | – | – | – | – | – | – | – |
| Clc1ccc(Cn2cc(CNc3c4c(nc5ccccc35)CCCC4)nn2)cc1 | 3 to 21 | 2 to 140 | 1.97 | 0.151 | – | inactive | – | – | – | – | – | – | – | – | – | – | – |
| Fc1ccc(Cn2cc(CNc3c4c(nc5ccccc35)CCCC4)nn2)cc1 | 3 to 21 | 2 to 140 | 2.38 | 0.059 | – | – | – | – | – | – | – | – | – | > 100 | > 100 | > 100 | – |
| c1ccc(Cn2cc(CNc3c4c(nc5ccccc35)CCCC4)nn2)cc1 | 3 to 21 | 2 to 140 | 3.3 | 0.18 | – | – | – | – | – | – | – | – | – | 97.1 | 62.9 | 81.4 | – |
| COc1ccc(Cn2cc(CNc3c4c(nc5cc(Cl)ccc35)CCCC4)nn2)cc1 | 3 to 21 | 2 to 140 | 0.737 | 0.115 | – | – | – | – | – | – | – | – | – | – | – | – | – |
| Clc1ccc2nc3c(c(NCc4cn(Cc5ccccc5)nn4)c2c1)CCCC3 | 3 to 21 | 2 to 140 | 2.39 | > 5 | – | – | – | – | – | – | – | – | – | – | – | – | – |
| Cc1ccc(Cn2cc(CNc3c4c(nc5ccccc35)CCCC4)nn2)cc1 | 3 to 21 | 2 to 140 | 0.621 | 0.072 | – | – | – | – | – | – | – | – | – | – | – | – | – |
